We go through one compound from PMC6054100, “Exploring the chemical space of the lysine-binding pocket of the first kringle domain of hepatocyte growth factor/scatter factor (HGF/SF) yields a new class of inhibitors of HGF/SF-MET binding” (Chemical Science, 2015).

Assay [1] deals with T1, NK1 (Homo sapiens, UniProt P14210). Put plainly: SPR fragment library screening against NK1. It is filed as binding. Details: made in house; host or cells: Pichia pastoris. The note with it: for SPR response: normalised relative value against NK1. The protocol: Supplementary Materials and Methods
T1 sequence (P14210 32-210 isoform P14210-6 limits assumed): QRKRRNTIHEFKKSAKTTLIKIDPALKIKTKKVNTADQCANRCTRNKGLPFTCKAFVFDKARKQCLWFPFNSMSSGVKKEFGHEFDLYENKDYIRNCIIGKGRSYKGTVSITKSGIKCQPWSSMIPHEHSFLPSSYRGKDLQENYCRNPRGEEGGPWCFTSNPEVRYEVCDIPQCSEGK
Fragment library screening and data analysis
Met567 (soluble truncated f ragment of the MET ectodomain, residues 25- 567), NK1 and t he SPH domain were immobilized on CM5 chips by amine coupling. NK1 was diluted into 10 m M phosphate pH 7.0 and the SPH domain into 10 mM acetate pH 5.5 to a final concentration of 2.5 μM and 1 μM, respectively, for coupling. The immobilization wizard within the Biacore T100 software was set to “aim for immobiliz ed level” of 8000 RU to achieve complete saturation of the chip surface.
W ith minor deviations, the procedure and conditions outlined below were used f or a ll screening s of an in-house fragment library of 1338 members against individual target proteins. The running buffer was PBS pH 7.4, 0.05% Tween 20, 0.25% DMSO (1% DMSO for Met567). Fragments were stored as 100 mM stock solutions in DMSO. Prior to screening, fragment samples were diluted to 500 μM (1 mM f or Met567) in running buffer.
Screening was performed in 96- we ll plates at a flow rate of 30 μl min-1 with 1 min sample injection f ollowed by dissociation f or 1 min and surf ace regeneration using 1 M NaCl f or 30 […]
post-regeneration baseline exceeded the pre- sample baseline by more than 10 RU, a second regeneration cycle with 50% ethylene glycol was used. In order to be able to correct for small variations in DMSO concentration between samples, eight solvent samples ranging from 0.012 to 1.5% DMSO were injected every 40th cycle. To monitor the binding capacity of the NK1, SPH and Met567 surfaces throughout the screening, injections of 500 μM HEPES (NK1), 0.25 μM Met567 (SPH) and 0.2 μM NK1 and 1% DMSO (Met567) were carried out every 40th cycle. The flow cell temperature was 25°C. NK1 and the SPH domain were immobilized on the same chip (channels 2 and 3 respectively) and were theref ore screened in parallel. Met567 was screened separately and results are published in an accompanying paper (W in t er et al. 2015, in revision).
For data analysis, fir st, all responses were reference and solvent corrected. 1 Next, equilibrium binding for every fragment was determined and hits established by applying several filters: sensorgram shape, upper and lower threshold. Typical sensorgrams from fragment screening show “square curves” in SPR due to the fast on and off rates and fragments not showing this response were discarded from further analysis. Binding levels are represented as response units (RU) but the SPR signal is a convolution of multiple parameters including target coupling density, target -binding activity, target molecular weight and molecular weight of each injected fragment. To be able to identif y hits accurately and to be able to compare responses between different plates and targets, data were normalised against these factors. First the theoretical maximum response for each fragment was calculated using equation 1:
RRmmm = CCCCCCCC ddCdCdd× MMffmCmdCd (Equation 1)
This RUmax value diff ers for each protein target because it depends on the molecular weight of the protein and the amount of protein immobilized on the chip (coupling density). The RUmax was then used to calculate the normalised relative SPR response:
NNNNNNNNNN NNNNr NrN SSR NNNrNrNN = RRcppppcppc× 100% (Equation 2) […]
fragment should cause upon binding. 100% response would be 1:1 binding wit h levels above 100% implying over-stoichiometric binding. […]
Fragment library screening to identify small molecule binders

Assay [2] deals with T1, NK1. Put plainly: SPR steady-state binding to immobilized NK1 (Biacore T100). Details: made in house; host or cells: Pichia pastoris. The method, boiled down: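 NK1 amine-coupled to a CM5 chip at 6000 RU; compound serial dilutions in PBS pH 7.4 with 0.05% Tween 20 injected at 30 μL min^–1, 1 min contact and 1 min dissociation. Binding constants derived from steady-state sensorgram analysis.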
(In general: SPR reads the build-up and loss of mass on a sensor chip optically.)

The structures appear in SMILES notation.

Regarding `O=C(O)CCc1ccco1` [MB605], the Ranking order at NK1 [1] (based on fragment screening, rank among the 71 NK1 hits (ESI Tables S3-S7)) turned out to be 1. For the same compound, the SPR response amounted to 215% at NK1 [1] (fragments 500 μM (ESI Tables S3-S7)) and 215% on NK1 [1] (initial fragment screening, fragments 500 μM (Table 3)). On NK1 [2] (fold better than HEPES), the “affinity for NK1 relative to HEPES” value is “about ten times better affinity”. In addition, the Kd – broadly, the constant that tells how readily two partners part at equilibrium – on NK1 [2] (steady-state binding constant from SPR, fragment hits (Table 3, text), read-out: KD) came to 310 ± 40 µM.
